# Tests used:
# U-2932 CDX = experiment: U-2932 (DLBCL) CDX, tumor growth; assay type: in vivo
# Text: (§1) See FIG. 9 (Data represented as mean±SEM. N=8, *P<0.05, **P<0.001, ***P<0.001 by Mann-Whitney U test).
# [1] = tested on: TMD-8 subcutaneous xenograft; experiment: TMD-8 (DLBCL) cell line-derived subcutaneous xenograft, tumor growth; assay type: in vivo
# Text: See FIG. 3 (Data represented as mean±SEM. N=8, ***P<0.001, ****P<0.0001 by Mann-Whitney U test). […]
# as §1
# [2] = tested on: Ibrutinib-sensitive and Ibrutinib-resistant MCL cell lines; experiment: CTG assay in MCL cell lines; assay type: cell-based; settings: in vitro
# [3] = tested on: SUDHL4 subcutaneous xenograft; experiment: SUDHL4 subcutaneous xenograft, tumor growth; assay type: in vivo; settings: Formula (I) 30 mg/kg intravenously QW, BID q2h
# Text: (§2) See FIG. 3 (Data represented as mean±SEM. N=8, ***P<0.001, ****P<0.0001 by Mann-Whitney U test).
# [4] = tested on: Karpas-422 subcutaneous xenograft; experiment: Karpas-422 subcutaneous xenograft, tumor growth; assay type: in vivo; settings: Formula (I) 30 mg/kg intravenously QW, BID q2h
# Text: as §2
# [5] = tested on: Mino CDX model of Ibrutinib resistant MCL; experiment: Mino CDX model of Ibrutinib resistant MCL, tumor growth; assay type: in vivo; settings: Formula (I) i.v. 15 mg/kg, QW BID q2h
# Text: Anti-tumor activity remains similar to the parental Mino model. Ibrutinib-resistance was induced through repeat in vivo passage and treatment with Ibrutinib. See FIG. 15 (Data represented as mean±SEM. N=7, *P<0.05, ****P<0.0001 by Mann-Whitney U test).
# [6] = tested on: LY2264 (DLBCL) patient-derived xenografts (PDX); experiment: LY2264 (DLBCL) patient-derived xenograft, tumor growth; assay type: in vivo
# Text: See FIG. 6 (Data represented as mean±SEM. N=8, *P<0.05, **P<0.001, ***P<0.001 by Mann-Whitney U test).
# [7] = tested on: DLBCL (SUDHL4, OCI-Ly-10, and TMD-8) and CLL (HG-3, JVM-3, and MEC-1) cell lines; experiment: Caspase 3/7-Glo assay in DLBCL and CLL cell lines; assay type: cell-based; settings: 6 h treatment
# [8] = tested on: PBMCs derived from patients with untreated or relapsed/refractory (R/R) CLL; experiment: Caspase-Glo 3/7 activity assay in CLL patient PBMCs; assay type: cell-based; settings: 6 h treatment; ex vivo patient PBMCs
structure (smiles),measurement,setting,value
Cc1cnc(NC(=O)[C@H]2CCC[C@@H](NC(=O)CC#N)C2)cc1-c1cc(F)c2ncn(C(C)C)c2c1 [Formula (I)],tumor growth inhibition,U-2932 CDX; Formula (I) monotherapy 7.5 mg/kg i.v. QW BID q2h,37%
same,tumor growth inhibition,"[1]; Example 1, FIG. 3, Formula (I) 7.5 mg/kg intravenously QW, BID q2h",49%
same,tumor growth inhibition,"[1]; Example 1, FIG. 3, Formula (I) 15 mg/kg intravenously QW, BID q2h",62%
same,tumor growth inhibition,"[1]; Example 1, FIG. 3, Formula (I) 30 mg/kg intravenously QW, BID q2h",83%
same,tumor growth inhibition,"[1]; Example 2, FIG. 5, Formula (I) monotherapy 7.5 mg/kg i.v., BID q2h QW",46%
same,tumor growth inhibition,"[1]; Example 3, FIG. 9, Formula (I) monotherapy 7.5 mg/kg i.v. QW BID q2h",49%
same,activity in CTG assay (in words),[2],shows activity
same,tumor growth inhibition,[3],125%
same,tumor growth inhibition,[4],108%
same,tumor growth inhibition (in words),[5],significant tumor growth inhibition
same,tumor growth inhibition,"[6]; Formula (I) alone, 30 mg/kg i.v. QW, BID q2h",40%
same,induction of apoptosis (caspase 3/7),[7],induction of apoptosis
same,induction of apoptosis (caspase 3/7),[8],induction of apoptosis
"CC1(C)CCC(CN2CCN(c3ccc(C(=O)NS(=O)(=O)c4ccc(NCC5CCOCC5)c([N+](=O)[O-])c4)c(Oc4cnc5[nH]ccc5c4)c3)CC2)=C(c2ccc(Cl)cc2)C1 [Venetoclax, reference compound]",tumor growth inhibition,U-2932 CDX; Venetoclax 50 mg/kg QD orally,37%
"C=CC(=O)N1CCC([C@@H]2CCNc3c(C(N)=O)c(-c4ccc(Oc5ccccc5)cc4)nn32)CC1 [Zanubrutinib, reference compound]",tumor growth inhibition,"[1]; Example 2, FIG. 5, Zanubrutinib 5 mg/kg, BID orally",44%
same,tumor growth inhibition,"[6]; Zanubrutinib alone, 25 mg/kg QD orally",64%

# — patent US20250281473A1, “CDK Inhibitors And Their Use As Pharmaceuticals” (PRELUDE THERAPEUTICS INCORPORATED, priority 2024, published 2025)
